Test: Human HepG2 cell viability assay in 384 well format
Format: toxicity, cell-based
Parameters: dose 125 nL, time 70.5 hour; concentration not given beside the values
Details: HepG2 cells, read-out: Inhibition

SMILES: N[C@@H]1CC[C@H](C(=O)NCCc2nc(-c3ccccc3)cs2)C1
- cytotoxicity at 70.5 h: -1.72%

SMILES: Cc1nn(-c2ccccc2)c(C)c1-c1ccnc(N2CCCNCC2)n1
- cytotoxicity at 70.5 h: -2.54%

SMILES: C1CC(CN2C[C@H]3CC[C@@H]2CN(Cc2nnc(C4CC4)o2)C3)C1
- cytotoxicity at 70.5 h: -16.7%

SMILES: CCCN1CC2(CCN(c3cc(C4CC4)ncn3)CC2)CC1C(=O)O (stereo not given)
- cytotoxicity at 70.5 h: -4.45%

SMILES: CCn1ccnc1CN(C)Cc1nc(Cc2ccccc2F)no1
- cytotoxicity at 70.5 h: 7.48%

SMILES: Cc1ncc(C(=O)N2CCC(N3C[C@@H](C)O[C@@H](C)C3)CC2)c(=O)[nH]1
- cytotoxicity at 70.5 h: 8.83%

SMILES: CC[C@@]1(O)CCN(C(=O)c2ccoc2)C[C@H]1O
- cytotoxicity at 70.5 h: -7.14%

SMILES: Cn1ccnc1-c1nccn1C[C@@H]1CCCN2CCCC[C@H]12
- cytotoxicity at 70.5 h: 2.02%

SMILES: CN1CCC(N(CCc2ccccc2)C(=O)COCC2CCCO2)CC1 (stereo not given)
- cytotoxicity at 70.5 h: -0.746%

SMILES: CN(C)CCNC(=O)c1ccc(OC2CCN(C(=O)CO)CC2)c(Cl)c1
- cytotoxicity at 70.5 h: -7.98%

SMILES: O=C1NC(c2cccnc2)=NC12CCN(CCCc1ccccc1)CC2
- cytotoxicity at 70.5 h: -8.89%

SMILES: COCCOCC(=O)N1CCC2(CCCN(C3CCOCC3)C2=O)C1 (stereo not given)
- cytotoxicity at 70.5 h: 11.4%

SMILES: Cn1ncc(N2CCC(CNC(=O)[C@@H](N)C3CCCCC3)CC2)cc1=O
- cytotoxicity at 70.5 h: 3.03%

SMILES: CCNc1ncc(CN2C[C@H]3CC[C@@H]2CN(C(=O)C2CCC2)C3)cn1
- cytotoxicity at 70.5 h: -7.7%

SMILES: COc1cc2c(cc1C(=O)N1CC(c3ccncc3)C1)CCC2
- cytotoxicity at 70.5 h: -5.23%

SMILES: Cc1cnn(CCNc2ncnc3c2CCN(CC2CCOC2)CC3)c1 (stereo not given)
- cytotoxicity at 70.5 h: -2.24%

SMILES: CCCN1CCCC2(CCN(Cc3noc(C4CCCC4)n3)C2)C1=O (stereo not given)
- cytotoxicity at 70.5 h: 3.33%

SMILES: Cc1cc(C)nc(CN2CCOC(c3ccc(Cl)cc3)C2)n1 (stereo not given)
- cytotoxicity at 70.5 h: -1.88%

SMILES: O=C(NCc1cnn2ccccc12)NC1CCCC1
- cytotoxicity at 70.5 h: -15.5%

SMILES: COc1cncc(-n2nc(C)c(CC(C)=O)c2C)c1
- cytotoxicity at 70.5 h: 0.266%

SMILES: Cc1ccn2c(F)c(C(=O)N3CCC4(CCC(=O)N(C)C4)CC3)nc2c1
- cytotoxicity at 70.5 h: -10.1%

SMILES: CCc1cc(C(=O)N2CC[C@@H](c3ccc4ccccc4c3)[C@H](O)C2)[nH]n1
- cytotoxicity at 70.5 h: 35%

SMILES: CCc1cnc(C)nc1NC(CC)c1ncnn1CC (stereo not given)
- cytotoxicity at 70.5 h: -5.6%

SMILES: COc1ccc(C(=O)N2CCCCC2c2ccccn2)c(OC)n1 (stereo not given)
- cytotoxicity at 70.5 h: 15.4%

SMILES: O=C(NCCc1cccnc1)c1cn(CCN2CCNCC2)nn1
- cytotoxicity at 70.5 h: -5.26%

SMILES: CCc1cnc(C)nc1NCCN1CCC(O)CC1
- cytotoxicity at 70.5 h: 9.55%

SMILES: CCC(C(=O)NC(C)(C)C)n1cccc(OC)c1=O (stereo not given)
- cytotoxicity at 70.5 h: -10.3%

SMILES: CCn1cnc(NC(=O)N2CCC(c3ccc(F)cc3)C2)n1 (stereo not given)
- cytotoxicity at 70.5 h: -8.46%

SMILES: CCn1cc(CNc2ccc3nccnc3c2)cn1
- cytotoxicity at 70.5 h: 7.17%

SMILES: Cn1ccnc1SCCNC1CCN(c2ncccn2)CC1
- cytotoxicity at 70.5 h: -1.29%

SMILES: CCCOCC1CCN(C(=O)Cn2cccc(OC)c2=O)C1 (stereo not given)
- cytotoxicity at 70.5 h: -9.9%

SMILES: COc1ccc(F)c(CN2CC(=O)N(c3ccccc3C)CC2C)c1 (stereo not given)
- cytotoxicity at 70.5 h: -7.03%

SMILES: Cc1oc(-c2ccc(F)cc2F)nc1CN1C[C@@H](C)O[C@@H](C)C1
- cytotoxicity at 70.5 h: 15.1%

SMILES: Cc1nn(C2CCCCC2)c2nc(C(C)(C)CN3CCOCC3)[nH]c12
- cytotoxicity at 70.5 h: -6.99%

SMILES: CSCCC(O)C(=O)N(C)Cc1cnn(-c2ccc(F)cc2)c1 (stereo not given)
- cytotoxicity at 70.5 h: -3.28%

SMILES: CCN1CCC(CC(=O)N2CCN(c3ccccc3OC)CC2C)CC1 (stereo not given)
- cytotoxicity at 70.5 h: 23.7%

SMILES: Cc1c(Cn2c(=O)cnc3ccccc32)cnn1C
- cytotoxicity at 70.5 h: -14.9%

SMILES: Cc1cnc(Cn2cc(-c3cccc(C(C)N(C)C)c3)nn2)cn1 (stereo not given)
- cytotoxicity at 70.5 h: -4.71%

SMILES: COc1cccc(OCC2CCCN(C(=O)Cc3cccc(O)c3)C2)c1 (stereo not given)
- cytotoxicity at 70.5 h: -11.3%

SMILES: O=C(NCCC1COc2ccccc2O1)c1ccc(N2CC(O)C2)nc1 (stereo not given)
- cytotoxicity at 70.5 h: -6.19%

SMILES: O=C(c1cnc2ccccn12)N1CCCC(c2ccn[nH]2)C1 (stereo not given)
- cytotoxicity at 70.5 h: -11.2%

SMILES: CC(c1ccccn1)N(C)Cc1cccc(C(=O)Nc2nccn2C)c1 (stereo not given)
- cytotoxicity at 70.5 h: 8.36%

SMILES: CN(Cc1ncc[nH]1)c1nc(-c2ccccn2)nc2c1CCNCC2
- cytotoxicity at 70.5 h: -11.9%

SMILES: Cc1ccsc1[C@@H]1CCN(C(=O)CCOc2ccccc2)C[C@H]1O
- cytotoxicity at 70.5 h: -8.93%

SMILES: NCCn1cc(C(=O)N2CCCCCC2c2cccc(F)c2)nn1 (stereo not given)
- cytotoxicity at 70.5 h: 13.5%

SMILES: CCn1c(C)nnc1SCCNc1cc(OC)ncn1
- cytotoxicity at 70.5 h: -18.6%

SMILES: Cc1cccnc1CN1CCN(C(=O)c2cc(Cl)c[nH]c2=O)CC1
- cytotoxicity at 70.5 h: 8.42%

SMILES: Cc1ccc(F)c(OC2(C(=O)O)CCN(C(=O)c3ccccc3)CC2)c1
- cytotoxicity at 70.5 h: -6.1%

SMILES: Cc1ccc(-c2cc(C(=O)N(C)Cc3noc4c3CCCC4)[nH]n2)s1
- cytotoxicity at 70.5 h: 21.6%

SMILES: COc1cc(-c2cccc3c2OC(CN)C3)cc(OC)c1OC (stereo not given)
- cytotoxicity at 70.5 h: -1.4%

SMILES: O=C(N[C@H]1CN(c2ccncc2)C[C@@H]1C1CC1)C1CCOCC1
- cytotoxicity at 70.5 h: -3.12%

SMILES: CSc1ncc(C(=O)NCc2cc3n(n2)CCCN(CC(C)C)C3)cn1
- cytotoxicity at 70.5 h: 5.43%

SMILES: O=C1OCCN1CC(=O)N1C[C@H]2CC[C@@H]1CN(C(=O)c1ccccc1)C2
- cytotoxicity at 70.5 h: 2.12%

SMILES: CS(=O)(=O)c1ccc(CN2CCCCC2c2ccc(F)cc2)cc1 (stereo not given)
- cytotoxicity at 70.5 h: 17.4%

SMILES: COc1ccc(C)cc1-n1cnnc1C1CC(=O)N(C)C1 (stereo not given)
- cytotoxicity at 70.5 h: -4.76%

SMILES: CC(Cc1cncs1)Nc1ncnc2cccc(F)c12 (stereo not given)
- cytotoxicity at 70.5 h: 1.5%

SMILES: Cn1cnnc1CN1CCC2(CCC(=O)N(Cc3ccccc3)C2)CC1
- cytotoxicity at 70.5 h: -4.83%

SMILES: Cc1cnc(NCc2csc(C(C)C)n2)nc1-c1cnn(C)c1
- cytotoxicity at 70.5 h: -14.9%

SMILES: O=C(O)C1(O)CCN(c2ccnc3c(C(F)(F)F)cccc23)CC1
- cytotoxicity at 70.5 h: -25.6%

SMILES: OC1(CNCCc2csc(-c3ncccn3)n2)CCNC1 (stereo not given)
- cytotoxicity at 70.5 h: -14.5%

SMILES: Nc1cc(O)nc(CCNC(=O)CC[C@@H]2CCCN3CCCC[C@H]23)n1
- cytotoxicity at 70.5 h: -4.87%

SMILES: CCc1nc(N2CCCC(CCCOC)(C(=O)O)C2)ncc1C (stereo not given)
- cytotoxicity at 70.5 h: -10.1%

SMILES: CC(C)c1ccn(C2(C(=O)O)CCN(c3ccncc3F)CC2)n1
- cytotoxicity at 70.5 h: -4.07%

SMILES: CC(C)SCCNC(=O)c1cccc2ccnn12
- cytotoxicity at 70.5 h: -9.35%

SMILES: Cc1[nH]ccc1C(=O)N[C@H]1CN(S(C)(=O)=O)C[C@@H]1C1CC1
- cytotoxicity at 70.5 h: -5.26%

SMILES: O=C1CCC2(CCN(Cc3ncccn3)CC2)CN1CCCO
- cytotoxicity at 70.5 h: -8.14%

SMILES: CCNc1ncc(C(=O)NCCCc2ccncc2)cn1
- cytotoxicity at 70.5 h: -3.04%

SMILES: N#Cc1cccc(NC2CC(=O)N(C3Cc4ccccc4C3)C2)n1 (stereo not given)
- cytotoxicity at 70.5 h: 19%

SMILES: Cc1cnccc1CN(C)C1CCN(c2ncnc3[nH]cnc23)CC1
- cytotoxicity at 70.5 h: -6.65%

SMILES: CC(=O)N1CCCC(C(=O)N2CCN(c3cnn(C)c(=O)c3)CC2)C1 (stereo not given)
- cytotoxicity at 70.5 h: 9.66%

SMILES: COCCN1CCC(CN(C)c2ncnc3c2c(C)nn3C)C1 (stereo not given)
- cytotoxicity at 70.5 h: 6.13%

SMILES: O=C(Nc1nncs1)N1CCCN(C2CCCCC2)CC1
- cytotoxicity at 70.5 h: -12.6%

SMILES: CN1CCN(c2cc(CCNC(=O)C3CCC3)nc(C3CC3)n2)CC1
- cytotoxicity at 70.5 h: -6.65%

SMILES: Cn1nc(C2CN(C(=O)c3cscn3)C2)c2nccnc21
- cytotoxicity at 70.5 h: -3.87%

SMILES: COc1cccc(-c2nccnc2C2CCN(C(C)=O)CC2)c1
- cytotoxicity at 70.5 h: -8.61%

SMILES: Cc1cncc(C2CCCN(C(=O)c3scnc3C)C2)n1 (stereo not given)
- cytotoxicity at 70.5 h: -3.5%

SMILES: CN(C(=O)c1ccccn1)c1nc2c(s1)CCc1c-2cnn1C
- cytotoxicity at 70.5 h: 8.04%

SMILES: Cc1cccc(CN2CCc3c(nc(N4CCCCC4C)[nH]c3=O)C2)n1 (stereo not given)
- cytotoxicity at 70.5 h: -4.07%

SMILES: Cc1cccc(CN2CCc3c(nc(N4CCC(C)CC4)[nH]c3=O)C2)n1
- cytotoxicity at 70.5 h: -9.37%

SMILES: Cc1c(C2CCCN(C(=O)Cc3ccccn3)C2)n2c(nc1=O)CCC2 (stereo not given)
- cytotoxicity at 70.5 h: 0.807%

Reference: ChEMBL document CHEMBL3507680, “University of Dundee, Gates Library screen for HepG2 cell viability”
